{"source": "patent US20100048594A1", "about": "“USE OF CYTOHESIN INHIBITORS FOR CHEMICALLY INDUCING LONGEVITY” (RHEINISCHE FRIEDRICH-WILHELMS UNIVERSITAT, priority 2006, published 2010)", "key": {"[1]": {"system": "Drosophila eukaryotic initiation factor 4E binding protein (d4EBP, Thor)", "test": "Transcription rate of insulin target gene d4EBP in insulin-treated Drosophila S2 cells (real-time PCR)", "assay_type": "cell-based", "conditions": "100 μM compound, 10 μg/ml human insulin, insulin alone less than 35%", "procedure": "Drosophila Schneider 2 (S2) cells were cultivated in Schneider's Medium (PAN company) with 10% heat-inactivated fetal calf serum (FCS). 2×10^6 cells were drawn into 35 mm vessels at 25° C. to 80% confluence, washed one time in phosphate buffered saline solution (1×PBS, Gibco), and transferred for twelve hours to Schneider's Medium, without FCS. The cells were then preincubated for two hours with 0.5% DMSO containing Schneider's Medium, without FCS, with or without the compound according to formula (9) or formula (25), with the final concentrations of the compounds according to formulas (9) and (25) being 1 μM, 10 μM and 100 μM. This was followed by a four-hour stimulation with 10 μg/ml human insulin (Sigma).\nAfter washing the cells two times with PBS, total RNA was then isolated from the cells using the NucleoSpin RNA II Kit (Macherey & Nagel), according to the manufacturer's instructions. The first strain cDNA synthesis was performed with every 500 ng RNA, using the QuantiTect Reverse Transcription Kit (Qiagen), according to the manufacturer's instructions. […]\nThe activity of the insulin signaling pathway was determined from the transcription rate of the insulin target gene Drosophila eukaryotic initiation factor 4E binding protein (d4EBP, Thor). […]"}, "[2]": {"system": "Drosophila melanogaster flies", "test": "Lifespan of adult Drosophila melanogaster flies fed with compound (Kaplan-Meier analysis)", "assay_type": "in vivo", "conditions": "for Average Lifespan: ±margin of error", "procedure": "The experiments were conducted on isogenic flies (Drosophila melanogaster) of the genotype white^1118, also called white^− or w^−, and mutants (w^1118; step^k08110/step^SH0323) (strain # 10770 from the public Bloomington Stock Center, genotype: step^k08110/CyO, URL http://flybase.bio.indiana.edu/reports/FBstOO10770.html; strain # FBst0103734 from the public Szeged Stock Center, genotype: step^SH0323/CyO, URL http://flybase.bio.indiana.edu/reports/FBst0103734.html), in which the Drosophila cytohesin steppke is mutated and therefore defective.\nBy crossing the two steppke alleles k08110 and SH0323 eight times with whites flies, an isogenic genetic background is produced, which permits a comparison of the lifespans between the genotypes of the type white^1118 and the mutants (w^1118; step^k08110/step^SH0323). The average lifespan of the wild type was approximately 25 days, while that of the mutants (w^1118; step^k08110/step^SH0323) was approximately 30 days.\nTo produce the special food, 32.5 g autolysed yeast (Fluka (Catalog No. 73145)) and 10 g agar (Difco (Catalog No. 281230)) were mixed with 300 ml water (demineralized, Roth (Catalog No. 3175)) and autoclaved at 120° C. for 20 minutes. The solution was cooled to 60° C., and 32.5 g α-D(+)-glucose monohydrate (Roth (Catalog No. 6887)) were added under stirring. 15 ml 10% (w/v) p-hydroxybenzoic acid methylester (Sigma (Catalog No. H3647)) solution dissolved in 70% (v/v) ethanol (Roth (Catalog No. 9065)) and 1.35 ml dimethylsulfoxide (DMSO, Roth (Catalog No. A994)) were then added. Water was then added to this basic solution to a volume of 450 ml, which was then held at a temperature of 60° C. For the control food, 50 ml of a 0.7% (v/v) DMSO solution in water were produced. For the food containing the compounds according to formulas (9) or (25), 0.2 ml of a 25 mM solution of the compounds according to formula (9) or (25) in 100% DMSO were added to 49.8 ml of a 0.3012% DMSO solution in water.\nThese 50 ml of the control solutions and the solutions containing the compounds according to formula (9) or (25) were each mixed with 450 ml of the basic solution, and were placed in 4 ml amounts in polystyrene containers (height 9.5 cm, diameter 2.4 cm, sealed with cotton wadding) to maintain the flies. After 24 hours, the cooled containers were sealed with cotton wadding and stored at 4° C.\nThe final concentration of the food components in the control food was 6.5% (w/v) autolysed yeast, 6.5% (w/v) α-D(+)-glucose monohydrate, 2% (w/v) agar, 0.3% (w/v) p-hydroxybenzoic acid methylester, 2.1% ethanol (v/v), 0.34% (v/v) DMSO.\n(§1) The final concentration of the food components in the food containing the compound according to formula (9) was 6.5% (w/v) autolysed yeast, 6.5% (w/v) α-D(+)-glucose monohydrate, 2% (w/v) agar, 0.3% (w/v) p-hydroxybenzoic acid methylester, 2.1% ethanol (v/v), 0.34% (v/v) DMSO, 10 μM compound according to formula (9).\nas §1, with “(25)” for “(9)”, “(25).” for “(9).”\nThe larvae were maintained on standard fly food containing 1.1% (w/v) brewer's yeast (“Gewürzmühle Brecht” company), 5.43% (w/v) cornmeal, 0.53% (w/v) filamentous agar (“Gewürzmühle Brecht” company), 6.6% (v/v) sugar beet syrup (Grafschafter), 1.3% (v/v) ethanol (Roth company), 0.13% (w/v) p-hydroxybenzoic acid methylester (Sigma).\n24 hours after emergence of the imagines, the adult flies, females and males were separated under a brief CO2 anesthetization lasting less than 2 minutes. During the 24 hours after emergence, the animals were fed using standard fly food. […]"}}}
{"smiles": "COc1nc(-c2ccc3c(c2)OCO3)n(-c2ccc(NC(=O)CSc3ccccc3)cc2)n1", "note": "[Compound (9)]", "values": [{"measurement": "transcription rate of d4EBP as % of that of the untreated control groups", "setting": "[1]", "value": "more than 85%"}, {"measurement": "increase in average lifespan as compared with the untreated control animals", "setting": "[2]; control animals (w^1118), 10 μM compound in food, P<0.05", "value": 11.5, "unit": "%"}, {"measurement": "Average Lifespan", "setting": "[2]; genotype w^1118, female flies, 10 μM compound in food", "value": "28.1 (±1.0) Days"}, {"measurement": "Average Lifespan", "setting": "[2]; genotype w^1118, step^k08110/step^SH0323 mutants, female flies, 10 μM compound in food", "value": "34.6 (±0.8) Days"}, {"measurement": "longer lifespan of treated mutants than untreated control animals", "setting": "[2]; steppke mutants fed 10 μM compound versus untreated w^1118", "value": 37.3, "unit": "%"}, {"measurement": "increase in the average lifespan of mutants by feeding", "setting": "[2]; steppke mutants, 10 μM compound in food, versus untreated mutants, P<0.001", "value": 15.3, "unit": "%"}]}
